Measured values published in publication PMC4706532, “Diarylthiophenes as inhibitors of the pore-forming protein perforin” (Bioorganic & Medicinal Chemistry Letters, 2016).
Values after ≈ are worked out from the molar mass of the structure shown.

Experiments:
recombinant perforin = target: T1, recombinant perforin (Mus musculus, UniProt P10820); experiment: Inhibition of perforin-mediated lysis of Jurkat cells (51Cr release); details: isolated perforin
T1 sequence (P10820 21-554): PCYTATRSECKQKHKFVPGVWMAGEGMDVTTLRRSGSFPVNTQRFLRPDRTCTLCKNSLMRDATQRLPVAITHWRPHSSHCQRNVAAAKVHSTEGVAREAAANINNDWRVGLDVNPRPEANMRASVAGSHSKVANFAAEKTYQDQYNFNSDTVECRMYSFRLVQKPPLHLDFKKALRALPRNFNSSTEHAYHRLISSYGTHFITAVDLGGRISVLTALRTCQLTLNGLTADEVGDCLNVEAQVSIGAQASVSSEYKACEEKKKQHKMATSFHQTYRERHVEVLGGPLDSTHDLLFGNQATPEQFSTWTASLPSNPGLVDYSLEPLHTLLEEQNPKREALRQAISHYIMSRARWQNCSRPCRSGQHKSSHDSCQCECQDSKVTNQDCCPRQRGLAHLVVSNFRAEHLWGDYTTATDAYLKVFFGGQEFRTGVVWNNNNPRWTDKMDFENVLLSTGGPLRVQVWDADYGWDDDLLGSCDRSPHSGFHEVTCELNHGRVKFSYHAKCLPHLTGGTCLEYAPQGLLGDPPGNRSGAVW
Method: The ability of the compounds to inhibit the lysis of nucleated (Jurkat T lymphoma) cells in the presence of 0.1% BSA, as measured by release of ^51Cr was measured. Jurkat target cells were labelled by incubation in medium with 100 µCi ^51Cr for one hour. The cells were then washed three times to remove unincorporated isotope and re-suspended at 1 x 10^5 cells per mL in RPMI buffer supplemented with 0.1% BSA. Each test compound was pre-incubated to concentrations of 20, 10, 5, 2.5 and 1.25 µM with recombinant perforin for 30 min with DMSO as a negative control. ^51Cr labelled Jurkat cells were then added and cells were incubated at 37 °C for 4 h. The supernatant was collected and assessed for its radioactive content on a gamma counter (Wallac Wizard 1470 automatic gamma counter). Each data point was performed in triplicate and an IC50 was calculated from the range of concentrations described to above.

Solubility in water = details: for solubility: water
[1] = Plasma stability, human plasma; assay type: in vitro ADME; details: % parent remaining at 24 h, 37 °C
Method: (§1) Preliminary stability studies were carried out by incubation in human or mouse plasma at 37 °C with the percentage parent remaining measured at 24 h (Table 2). […] In mouse plasma the ratio of open to closed is 50:50%, while in human plasma this shifts to 90:10 due to the strong affinity of human serum albumin for the ring-opened form.[20] It is likely that the same phenomenon is operating in the present case and while not necessarily an issue for mouse studies, will need to be addressed in future work.
(§2) Incubation method - Mouse (CD-1, male) and human (pooled) plasma pH was adjusted to 7.4 with either 1M phosphoric acid or sodium hydroxide. Plasma was spiked with 100 uM of test compounds and divided into two parts; one part was immediately transferred to -80 °C (control), and the second part was incubated at 37 °C at 24 h.
(§3) At the end of the study duration, samples were transferred to -80 °C until ready to analyse by HPLC-DAD. On the day of analysis, control and incubated samples were thawed on wet ice and mixed.
(§4) Sample treatment for HPLC - 20 uL of samples were mixed with 80 uL (1:4 v/v) ice cold acetonitrile to precipitate the plasma proteins, centrifuged at 13,000 rpm for 5 min to obtain the clear supernatant. The supernatant was diluted with 0.01% formic acid– water (1:2 v/v) and 50 uL was injected onto the HPLC system (Agilent).
(§5) Calculation: The % loss was calculated based on peak area using the following formula: (peak area time “0”- peak area time “24h”)/peak area time “0” multiplied by 100. % Remaining = 100 - % loss.

[2] = test system: perforin delivered by KHYG-1 NK cells; experiment: KHYG-1 cytotoxicity assay: lysis of K562 target cells by KHYG-1 NK cells (51Cr release); assay type: cell-based, human; details: for Activity against perforin delivered by whole KHYG-1 NK cells (in words): whole human NK cells, K562 targets
Method: (§6) The compounds were then evaluated for their ability to block the effect of perforin delivered by whole KHYG-1 NK cells (Table 2). Employing whole NK cells is a more rigorous model of conditions in vivo than the use of isolated recombinant protein since effector cell identification of the labelled target cell and formation of an immune synapse are required for perforin release. […] After co-incubation of inhibitor with KHYG-1 NK cells in medium for 30 min at room temperature, ^51Cr-labelled K562 leukaemia target cells were added and cell lysis evaluated after 4 h incubation at 37 °C by measuring ^51Cr release. […] Viable and dead cells were counted and percent viability calculated based on total cell count (for further details see Supplementary data). […] For the purposes of this work, compounds are classified as toxic if NK cell viability falls below 70%. This is due to the importance of CTLs and NK cells in the overall immunological response which means that it is essential that any pharmacological intervention allows rapid recovery of these cytotoxic effector cells for normal immunological function.
KHYG-1 cells were washed and re-suspended in RPMI + 0.1% BSA at 4 × 10^5 cells/mL, and an amount of 50 μL of KHYG-1 cells was dispensed to each well of a 96-well V-bottom plate. RPMI (50 μL) + 0.1% BSA or 10% (final concentration) of serum was added to each well. Then test compounds were added to KHYG-1 cells at various concentrations up to 20 μM and incubated at room temperature for […]. 1 × 10^6 K562 target cells were labelled with 75 μCi ^51Cr in 200 μL of RPMI for 90 min at 37 °C. Cells were washed as described above and re-suspended in 5 mL of RPMI + 0.1% BSA. An amount of 50 μL of ^51Cr labelled K562 leukaemia target cells was added to each well of the KHYG-1 plate (effector/target 2:1) and incubated at 37 °C for 4 h. ^51Cr release was assayed using a Skatron harvesting press and radioactivity estimated on a Wallac Wizard 1470 automatic γ counter (Turku, Finland). The percentage of specific cytotoxicity was calculated using the following formula:
% specific lysis = […]
(maximum release - spontaneous release)
and expressed as the mean of triplicate assays ± standard error of the mean.

[3] = Toxicity to KHYG-1 NK cells (Trypan blue exclusion); details: human
Method: as §6
The toxicity assay was carried out in exactly the same manner as the killing assay above, but instead of adding the labelled K562 target cells, 100 μL of RPMI 0.1% BSA was added. Cells were incubated for 4 h at 37 °C and then washed ×3 in RPMI + 0.1% BSA. Cells were then re-suspended in 200 μL of complete medium and incubated for 18−24 h at 37 °C. Trypan blue was added to each well. Viable (clear) cells and total (clear + blue) cells were counted, and the percentage of viable cells was calculated compared to DMSO treated cell control (% viability).

[4] = Plasma stability, mouse plasma; assay type: in vitro ADME; details: % parent remaining at 24 h, 37 °C
Method: as §1, §2, §3, §4, §5

Row | Inhibition of perforin lytic activity in Jurkat assay (in words) (recombinant perforin) | melting point [°C] | Compound | other results
1 | loss of activity | – | NC(=O)c1ccc(-c2ccc(-c3ccc4c(c3)CNC4=O)s2)cc1 [Compound 23a] | –
2 | poor activity or were inactive | 209 to 211 | Nc1cc(-c2ccc(-c3ccc4c(c3)COC4=O)s2)ccc1C(=O)NCCN1CCOCC1 [Compound 56] | –
3 | – | – | NC(=O)c1ccc(-c2ccc(-c3ccc4c(c3)COC4=O)s2)cc1N [Compound 55] | solubility (Solubility in water): 9.4 µg/mL (≈ 26.8 µM)
4 | – | 208 to 210 | CCOC(=O)c1ccc(-c2ccc(-c3ccc4c(c3)COC4=O)s2)cc1O [Compound 40] | –
5 | – | 207 to 209 | O=C1OCc2cc(-c3ccc(-c4cccc(Cl)c4)s3)ccc21 [Compound 11] | –
6 | – | 231 to 234 | O=C1OCc2cc(-c3ccc(-c4ccc(Cl)cc4)s3)ccc21 [Compound 12] | –
7 | – | 241 to 244 | CC(O)CNC(=O)c1ccc(-c2ccc(-c3ccc4c(c3)COC4=O)s2)cc1O (centres unmarked) [Compound 52] | –
8 | activity is lost altogether | 250 to 251 | N#Cc1cccc(-c2ccc(-c3ccc4c(c3)COC4=O)s2)c1 [Compound 20] | –
9 | – | – | NC(=O)CNC(=O)c1ccc(-c2ccc(-c3ccc4c(c3)COC4=O)s2)cc1O [Compound 53] | solubility (Solubility in water): 4.7 µg/mL (≈ 11.5 µM)
10 | poor activity or were inactive | 185 to 188 | CN(C)CCCNC(=O)c1ccc(-c2ccc(-c3ccc4c(c3)COC4=O)s2)cc1 [Compound 32] | –
11 | – | 224 to 227 | COc1ccc(-c2ccc(-c3ccc4c(c3)COC4=O)s2)cc1 [Compound 15] | –
12 | poor activity or were inactive | – | O=C(NCCN1CCOCC1)c1ccc(-c2ccc(-c3ccc4c(c3)COC4=O)s2)cc1O [Compound 49] | –
13 | – | 259 to 263 | NC(=O)c1cccc(-c2ccc(-c3ccc4c(c3)COC4=O)s2)c1 [Compound 22] | –
14 | – | – | O=C1OCc2cc(-c3ccc(-c4ccc(CO)cc4)s3)ccc21 [Compound 59] | Plasma stability (% at 24 h) Human [1]: 73%; inhibition at 20 µM ([2]; Homo sapiens, KHYG-1 NK, read-out: KHYG-1 inhibition (% at 20 μM), compound 20 μM, perforin-induced lysis of K562 target cells co-incubated with KHYG-1 human NK cells, vs untreated control): 13%; Activity against perforin delivered by whole KHYG-1 NK cells (in words) [2]: poor or no activity; viability at 24 h, 20 µM [3]: 79%; Plasma stability (% at 24 h) Mouse [4]: 87%
15 | – | 273 to 276 | NS(=O)(=O)c1cccc(-c2ccc(-c3ccc4c(c3)COC4=O)s2)c1 [Compound 61] | –
16 | – | 255 to 257 | CC(C)(C)NS(=O)(=O)c1ccc(-c2ccc(-c3ccc4c(c3)COC4=O)s2)cc1 [Compound 62] | –
17 | poor activity or were inactive | 185 to 188 | CN(C)CCNC(=O)c1ccc(-c2ccc(-c3ccc4c(c3)COC4=O)s2)cc1N [Compound 57] | –
18 | – | 109 to 111 | Cc1ccccc1-c1ccc(-c2ccc3c(c2)COC3=O)s1 [Compound 7] | –

Row | Inhibition of perforin lytic activity in Jurkat assay (in words) (recombinant perforin) | melting point [°C] | Compound | other results
19 | – | 278 to 280 | CS(=O)(=O)c1ccc(-c2ccc(-c3ccc4c(c3)COC4=O)s2)cc1 [Compound 60] | –
20 | loss of efficacy | 299 to 302 | CNC(=O)c1ccc(-c2ccc(-c3ccc4c(c3)COC4=O)s2)cc1 [Compound 29] | –
21 | – | 231 to 233 | O=C1OCc2cc(-c3ccc(-c4ccccc4)s3)ccc21 [Compound 6] | –
22 | – | 260 to 261 | O=C1OCc2cc(-c3ccc(-c4ccncc4)s3)ccc21 [Compound 70] | –
23 | – | – | O=C(NCCO)c1ccc(-c2ccc(-c3ccc4c(c3)COC4=O)s2)cc1O [Compound 51] | solubility (Solubility in water): 15.7 µg/mL (≈ 39.7 µM)
24 | poor activity or were inactive | 242 to 245 | CN(C)CCNC(=O)c1ccc(-c2ccc(-c3ccc4c(c3)COC4=O)s2)cc1O [Compound 50] | –
25 | – | 192 to 194 | Cc1cccc(-c2ccc(-c3ccc4c(c3)COC4=O)s2)c1 [Compound 8] | –
26 | – | 239 to 241 | CSc1ccc(-c2ccc(-c3ccc4c(c3)COC4=O)s2)cc1 [Compound 58] | –
27 | – | 131 to 133 | O=C1OCc2cc(-c3ccc(-c4ccccc4Cl)s3)ccc21 [Compound 10] | –
28 | – | – | CS(=O)(=O)Nc1ccc(-c2ccc(-c3ccc4c(c3)COC4=O)s2)cc1 [Compound 63] | Plasma stability (% at 24 h) Human [1]: 70%; KHYG-1 inhibition (% at 20 μM) ([2]; compound 20 μM, perforin-induced lysis of K562 target cells co-incubated with KHYG-1 human NK cells, vs untreated control): No activity; Activity against perforin delivered by whole KHYG-1 NK cells (in words) [2]: poor or no activity; Plasma stability (% at 24 h) Mouse [4]: 80%
29 | – | 276 to 279 | O=C1OCc2cc(-c3ccc(-c4cccc(O)c4)s3)ccc21 [Compound 18] | –
30 | no detectable inhibition | 190 to 192 | COc1ccccc1-c1ccc(-c2ccc3c(c2)COC3=O)s1 [Compound 13] | –
31 | no detectable inhibition | 165 to 167 | COc1cccc(-c2ccc(-c3ccc4c(c3)COC4=O)s2)c1 [Compound 14] | –
32 | abolishes activity completely | – | CN1CCN(C(=O)c2ccc(-c3ccc(-c4ccc5c(c4)COC5=O)s3)cc2)CC1 [Compound 31] | –
33 | loss of activity | 287 to 290 | CN1Cc2cc(-c3ccc(-c4ccc(C(N)=O)cc4)s3)ccc2C1=O [Compound 23b] | –
34 | loses all activity | 279 to 282 | O=C1OCc2cc(-c3ccc(-c4ccc(O)cc4)s3)ccc21 [Compound 19] | –
35 | abolishes activity completely | 290 to 292 | CN(C)C(=O)c1ccc(-c2ccc(-c3ccc4c(c3)COC4=O)s2)cc1 [Compound 30] | –
36 | – | 184 to 186 | Cc1ccc(-c2ccc(-c3ccc4c(c3)COC4=O)s2)cc1 [Compound 9] | –

Row | Compound | Inhibition of perforin lytic activity in Jurkat assay (in words) (recombinant perforin) | melting point [°C] | other results
37 | O=C1OCc2cc(-c3ccc(-c4ccc5c(c4)COC5=O)s3)ccc21 [Compound 71] | only moderately potent | – | Solubility (in words) (Solubility in water): extremely insoluble
